ChEMBL document CHEMBL3351233, “Design, stereoselective synthesis, configurational stability and biological activity of 7-chloro-9-(furan-3-yl)-2,3,3a,4-tetrahydro-1H-benzo[e]pyrrolo[2,1-c][1,2,4]thiadiazine 5,5-dioxide” (Bioorg Med Chem, 2014)

How the values were obtained:
[1] = Chemical stability of the compound in water/acetonitrile mobile phase by chromatography; format: physicochemical; details: buffer
Rattus norvegicus [2] = species: Rattus norvegicus; test: Positive allosteric modulator activity at AMPA receptor in 7 days old Sprague-Dawley rat cerebellar granule neurons assessed as potentiation of kainite-evoked current at 10 uM by whole cell patch clamp technique
Rattus norvegicus [3] = species: Rattus norvegicus; test: Positive allosteric modulator activity at AMPA receptor in 7 days old Sprague-Dawley rat cerebellar granule neurons assessed as potentiation of 5-Will-evoked current at 10 uM by whole cell patch clamp technique

| Compound | Stability [1] | Activity (Rattus norvegicus [2]) [%] | Activity (Rattus norvegicus [3]) [%] |
| --- | --- | --- | --- |
| O=S1(=O)NC2CCCN2c2c(-c3ccoc3)cc(Cl)cc21 (racemic) | Stable | 30 | – |
| CC1Nc2ccc(Cl)cc2S(=O)(=O)N1 (stereo not drawn) | – | 8 | 10 |
| O=S1(=O)N[C@H]2CCCN2c2c(-c3ccoc3)cc(Cl)cc21 | – | 12 | 122 |
| O=S1(=O)N[C@@H]2CCCN2c2c(-c3ccoc3)cc(Cl)cc21 | – | 74 | 245 |
